Tests used:
[1] = tested on: BAE cells; assay: BrdU incorporation assay; assay type: cell-based, bovine; conditions: LIF 48 hours
Protocol: BAE cells were plated at the density of 2×10^4 cells/well with 1 ml of culture medium (DMEM-low glucose plus 10% BCS) in a 12-well plate with a 18-mm poly-D-lysine-treated coverslip in each well, incubating at 37° C. overnight. After removal of culture medium, cells were incubated in 0.5 ml of DMEM-low glucose plus 1% BCS. LIF (10 ng/ml) and vehicle control (0.1% BSA in PBS) were added to the cells. Upon LIF treatment for 48 hours, cells were subjected to BrdU incorporation by adding 2.5 μl of 2 mM BrdU in DMSO to each well to a final concentration 10 μM and incubating for 4 hours. Then, cells are subjected to BrdU immunofluorescence staining using an antibody against BrdU conjugated with Fluor alexa-488 (Biolegend, CAT #364106, 1:400). Briefly, BrdU labeling medium was removed from the culture plates and cells were fixed with 3.7% formaldehyde in PBS at room temperature for 15 minutes. Cell DNAs were denatured with 1N HCl on ice for 10 minutes and 2N HCl at room temperature for 10 minutes following cell permeabilization with 0.1% Triton X-100 in PBS (PBST). […] Four fields were randomly selected for each sample and the BrdU-positive nuclei as well as total nuclei (DAPI-positive) were counted manually; the percentages of BrdU-positive cells were determined by dividing the numbers of BrdU-positive nuclei with the numbers of total nuclei. […]

[2] = tested on: mouse retina; assay: Measurement of vascular leakage in retina (TRITC-dextran); assay type: in vivo; conditions: mice, LIF 10 ng intravitreally
Protocol: Recombinant human VEGF (100 ng) or LIF (10 ng) was injected into the vitreous (0.1% BSA PBS solution as vehicle control). TRITC-dextran (50 mg/ml, 100 ul) was then injected into the tail vein. Ten minute later, animals were sacrificed and eyes were enucleated. Retina flat mount was imaged under microscope (65).

For “LIF: recombinant human leukemia inhibitory factor, a member of the IL-6 family of cytokines”, the “BrdU incorporation compared to the vehicle control” value [1] was “significantly reduced” and the retinal microvascular leakage [2] was “does not induce retinal microvascular leakage”.

— US20220105157A1, “Compositions and Methods for Promoting Angiogenesis in the Eye” (The Regents of the University of California, priority 2019, published 2022)
